From ChEMBL document CHEMBL5303573, “Mapping human microbiome drug metabolism by gut bacteria and their genes” (Nature, 2019)

Legend:
[1] = The drug is tested on Edwardsiella tarda strain: ATCC23685 for biotransformation. The drug concentrations were measured before and after a 12-h incubation by liquid-chromatography-coupled mass spectrometry (LC–MS); conditions: 2 µM
[2] = bacteroides fragilis, 12 h, 2 µM
Description: The drug is tested on Bacteroides fragilis strain: 3397 (T10) for biotransformation. The drug concentrations were measured before and after a 12-h incubation by liquid-chromatography-coupled mass spectrometry (LC–MS)

[3] = The drug is tested on Bifidobacterium ruminantium strain: fecal isolate for biotransformation. The drug concentrations were measured before and after a 12-h incubation by liquid-chromatography-coupled mass spectrometry (LC–MS); conditions: 2 µM
[4] = roseburia intestinalis, 12 h, 2 µM
Description: The drug is tested on Roseburia intestinalis strain: L1-82 for biotransformation. The drug concentrations were measured before and after a 12-h incubation by liquid-chromatography-coupled mass spectrometry (LC–MS)

[5] = bacteroides thetaiotaomicron, 12 h, 2 µM
Description: The drug is tested on Bacteroides thetaiotaomicron strain: VPI-5482 for biotransformation. The drug concentrations were measured before and after a 12-h incubation by liquid-chromatography-coupled mass spectrometry (LC–MS)

[6] = The drug is tested on Eggerthella lenta strain: ATCC25559 for biotransformation. The drug concentrations were measured before and after a 12-h incubation by liquid-chromatography-coupled mass spectrometry (LC–MS); conditions: 2 µM

Compound	Bacterial Biotransformation [1]	Bacterial Biotransformation [2]	Bacterial Biotransformation [3]	Bacterial Biotransformation [4]	Bacterial Biotransformation [5]	Bacterial Biotransformation [6]
CN1CCN2c3ccccc3Cc3ccccc3C2C1 (stereo not given) [MIANSERIN]	Compound NOT metabolized	Compound NOT metabolized	Compound NOT metabolized	–	–	–
Nc1nnc(-c2cccc(Cl)c2Cl)c(N)n1 [LAMOTRIGINE]	Compound NOT metabolized	Compound NOT metabolized	Compound NOT metabolized	Compound NOT metabolized	Compound NOT metabolized	–
CN(C)CC(c1ccc(O)cc1)C1(O)CCCCC1.O=C(O)CCC(=O)O (stereo not given) [DESVENLAFAXINE SUCCINATE]	Compound NOT metabolized	Compound NOT metabolized	–	Compound NOT metabolized	Compound NOT metabolized	Compound NOT metabolized
CC(CCc1ccccc1)NCC(O)c1ccc(O)c(C(N)=O)c1 (stereo not given) [LABETALOL]	Compound NOT metabolized	Compound NOT metabolized	–	Compound NOT metabolized	Compound NOT metabolized	Compound NOT metabolized
O=C1[C@H](CC[C@H](O)c2ccc(F)cc2)[C@@H](c2ccc(O)cc2)N1c1ccc(F)cc1 [EZETIMIBE]	Compound NOT metabolized	Compound NOT metabolized	Compound NOT metabolized	Compound NOT metabolized	Compound NOT metabolized	–
O=C(Nc1ccccc1)OCC(CN1CCCCC1)OC(=O)Nc1ccccc1 (stereo not given) [DIPERODON]	Compound NOT metabolized	Compound NOT metabolized	Compound NOT metabolized	Compound NOT metabolized	Compound NOT metabolized	–
CC(C)c1c(CN(C)C(C)Cc2ccccc2)n(C)n(-c2ccccc2)c1=O (stereo not given) [FAMPROFAZONE]	Compound metabolized	Compound metabolized	–	Compound NOT metabolized	Compound metabolized	–
CN(C)CCC=C1c2ccccc2COc2ccccc21 [DOXEPIN]	Compound NOT metabolized	Compound NOT metabolized	Compound NOT metabolized	Compound NOT metabolized	Compound NOT metabolized	–
CC(C)[C@H]1CC[C@H](C(=O)N[C@H](Cc2ccccc2)C(=O)O)CC1 [NATEGLINIDE]	Compound NOT metabolized	Compound NOT metabolized	Compound NOT metabolized	–	Compound NOT metabolized	–
Fc1ccc([C@@H]2CCNC[C@H]2COc2ccc3c(c2)OCO3)cc1 [PAROXETINE]	Compound NOT metabolized	Compound NOT metabolized	Compound NOT metabolized	Compound NOT metabolized	Compound NOT metabolized	–
CN1CCc2c(c3ccccc3n2Cc2ccccc2)C1.CN1CCc2c(c3ccccc3n2Cc2ccccc2)C1.O=S(=O)(O)c1cccc2c(S(=O)(=O)O)cccc12	Compound NOT metabolized	Compound NOT metabolized	Compound NOT metabolized	Compound NOT metabolized	Compound NOT metabolized	Compound NOT metabolized
CC(=O)CCCCn1c(=O)c2c(ncn2C)n(C)c1=O [PENTOXIFYLLINE]	Compound NOT metabolized	Compound NOT metabolized	–	Compound NOT metabolized	Compound NOT metabolized	–
O=C(O)CCc1nc(-c2ccccc2)c(-c2ccccc2)o1 [OXAPROZIN]	Compound NOT metabolized	–	Compound metabolized	–	Compound metabolized	–
COCCc1ccc(OCC(O)CNC(C)C)cc1.COCCc1ccc(OCC(O)CNC(C)C)cc1.O=C(O)C(O)C(O)C(=O)O (stereo not given) [METOPROLOL TARTRATE]	Compound NOT metabolized	Compound NOT metabolized	Compound metabolized	Compound NOT metabolized	Compound NOT metabolized	Compound NOT metabolized
CC(=O)O[C@]1(C(C)=O)CC[C@H]2[C@@H]3C=C(C)C4=CC(=O)CC[C@]4(C)[C@H]3CC[C@@]21C [MEGESTROL ACETATE]	Compound NOT metabolized	Compound metabolized	Compound metabolized	Compound NOT metabolized	–	Compound NOT metabolized
CN1CCOC(c2ccccc2)c2ccccc2C1 (stereo not given) [NEFOPAM]	Compound NOT metabolized	Compound NOT metabolized	Compound NOT metabolized	Compound NOT metabolized	Compound NOT metabolized	–

Compound	Bacterial Biotransformation [1]	Bacterial Biotransformation [2]	Bacterial Biotransformation [3]	Bacterial Biotransformation [4]	Bacterial Biotransformation [5]	Bacterial Biotransformation [6]
CN1CCC(OC(c2ccccc2)c2ccccc2)CC1	Compound NOT metabolized	Compound NOT metabolized	Compound metabolized	Compound NOT metabolized	Compound NOT metabolized	–
COc1ccccc1N1CCN(CC(O)COc2cccc3ccccc23)CC1 (stereo not given) [NAFTOPIDIL]	Compound NOT metabolized	Compound NOT metabolized	–	Compound NOT metabolized	Compound NOT metabolized	Compound NOT metabolized
CCN(CC)C(C)CN1c2ccccc2Sc2ccccc21 (stereo not given) [ETHOPROPAZINE]	–	Compound NOT metabolized	–	Compound NOT metabolized	Compound metabolized	–
COc1ccc2c3c1O[C@H]1C[C@@H](O)C=C[C@@]31CCN(C)C2 [GALANTAMINE]	Compound NOT metabolized	Compound metabolized	Compound NOT metabolized	Compound NOT metabolized	Compound metabolized	–
OCCN(CCO)c1nc(N2CCCCC2)c2nc(N(CCO)CCO)nc(N3CCCCC3)c2n1 [DIPYRIDAMOLE]	Compound NOT metabolized	Compound NOT metabolized	–	Compound NOT metabolized	Compound NOT metabolized	Compound NOT metabolized
C[C@H]1O[C@@H](O[C@H]2[C@@H](O)C[C@H](O[C@H]3[C@@H](O)C[C@H](O[C@H]4CC[C@@]5(C)[C@H](CC[C@@H]6[C@@H]5C[C@@H](O)[C@]5(C)[C@@H](C7=CC(=O)OC7)CC[C@]65O)C4)O[C@@H]3C)O[C@@H]2C)C[C@H](O)[C@@H]1O [DIGOXIN]	Compound NOT metabolized	Compound metabolized	–	Compound NOT metabolized	Compound metabolized	–
CN1C(=O)CC(C)(c2ccccc2)C1=O (stereo not given) [METHSUXIMIDE]	Compound NOT metabolized	Compound NOT metabolized	Compound NOT metabolized	–	Compound NOT metabolized	–
C#C[C@]1(O)CC[C@H]2[C@@H]3CCC4=CC(=O)CC[C@@H]4[C@H]3CC[C@@]21CC [LEVONORGESTREL]	Compound NOT metabolized	Compound metabolized	Compound NOT metabolized	–	–	Compound NOT metabolized
OC(Cn1cncn1)(Cn1cncn1)c1ccc(F)cc1F [FLUCONAZOLE]	Compound NOT metabolized	Compound metabolized	Compound metabolized	–	Compound metabolized	Compound NOT metabolized
Cc1ccnc2c1NC(=O)c1cccnc1N2C1CC1 [NEVIRAPINE]	Compound NOT metabolized	–	Compound NOT metabolized	Compound NOT metabolized	Compound NOT metabolized	–
Nc1nc(N)nc(-c2cc(Cl)ccc2Cl)n1.O=C(O)/C=C\C(=O)O [IRSOGLADINE MALEATE]	Compound NOT metabolized	Compound NOT metabolized	Compound metabolized	Compound NOT metabolized	Compound NOT metabolized	–
CC(C)N(CCC(C(N)=O)(c1ccccc1)c1ccccn1)C(C)C.O=P(O)(O)O (stereo not given) [DISOPYRAMIDE PHOSPHATE]	Compound NOT metabolized	Compound NOT metabolized	–	Compound NOT metabolized	–	–
Br.COc1ccc2c(c1)[C@]13CCCC[C@@H]1[C@H](C2)N(C)CC3.O [DEXTROMETHORPHAN HYDROBROMIDE]	Compound NOT metabolized	Compound NOT metabolized	Compound NOT metabolized	Compound NOT metabolized	Compound NOT metabolized	–
COCCCC/C(=N\OCCN)c1ccc(C(F)(F)F)cc1.O=C(O)/C=C\C(=O)O [FLUVOXAMINE MALEATE]	Compound NOT metabolized	Compound metabolized	Compound metabolized	Compound NOT metabolized	Compound metabolized	–
O=C1NCC2(CCN(CCc3ccccc3)CC2)O1 [FENSPIRIDE]	Compound NOT metabolized	Compound metabolized	–	Compound NOT metabolized	Compound metabolized	–
Cc1ccccc1C(OCCN(C)C)c1ccccc1.O=C(O)CC(O)(CC(=O)O)C(=O)O (stereo not given) [ORPHENADRINE CITRATE]	Compound NOT metabolized	Compound NOT metabolized	–	Compound NOT metabolized	Compound NOT metabolized	–
